Experimental findings from ChEMBL document CHEMBL1201862, “PubChem BioAssay data set” (2004) are described below.

Some test systems named below: HOP-62; NCI/ADR-RES; MOLT-4; IGROV-1; NCI-H522; SNB-75; MDA-MB-231; HCC 2998; SF-539; EKVX; T47D; SF-268; CCRF-CEM; OVCAR-8; TK-10; NCI-H23; UACC-257; HL-60; HT-29; M14.
Holding throughout (experiment): DTP human tumour cell line panel, 48 h

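Cultured in 96-well plates, cells were exposed to test compound for 48 hours across five concentrations. GI50 marks 50% less growth.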 Active and inactive are the calls of the source. No stated cut-off is given here; in the data, active = GI50 up to about 1.1 µM and inactive = higher. Bounds are passed on as bounds.

On to `Cn1cc(-c2n[nH]c(-c3ccc(Cl)cc3)nc2=O)c2ccccc21`, for which the GI50 (in general, the concentration giving 50% growth inhibition) in the assay on HOP-62 was 5.36 µM (inactive); in the assay on NCI/ADR-RES, 1.69 µM (inactive); in the assay with MOLT-4, 1.6 µM (inactive); with IGROV-1, 4.58 µM (inactive); in the assay on NCI-H522 it was 0.959 µM (active); in the assay on SNB-75, 3.11 µM (inactive). Also, the GI50 was 15.5 µM (inactive) in the assay on MDA-MB-231; 1.57 µM (inactive) in the assay with HCC 2998; 1.08 µM (active) in the assay with SF-539; 4.41 µM (inactive) in the assay with EKVX; 9.59 µM (inactive) in the assay with T47D; 7.59 µM (inactive) with SF-268. In addition, the GI50 in the assay on CCRF-CEM is 1.77 µM (inactive); in the assay on OVCAR-8 it was 5.62 µM (inactive); with TK-10, 11.8 µM (inactive); in the assay with NCI-H23, 4.28 µM (inactive); in the assay with UACC-257, 7.53 µM (inactive); in the assay on HL-60 it was 0.671 µM (active). Further, the GI50 is 2.19 µM (inactive) in the assay with HT-29 and 3.18 µM (inactive) in the assay with M14.

As to `N/C(=N\NC(=O)c1nc2ccccc2s1)c1ccccn1`, the GI50 in the assay with HOP-62 is 10.3 µM (inactive); in the assay on NCI/ADR-RES it was 1.11 µM (active); in the assay on MOLT-4 it was 1.29 µM (inactive); in the assay with IGROV-1, 12.8 µM (inactive); with NCI-H522, 13.8 µM (inactive); with SNB-75, 7.74 µM (inactive). Also, the GI50 in the assay with MDA-MB-231 is 14 µM (inactive); in the assay with HCC 2998 it was 8.17 µM (inactive); in the assay on SF-539 it was 3.59 µM (inactive); in the assay with EKVX, 3.68 µM (inactive); in the assay with T47D, 10.6 µM (inactive); in the assay on SF-268, 6.87 µM (inactive). In addition, the GI50 is 2.42 µM (inactive) in the assay with CCRF-CEM; 5.33 µM (inactive) in the assay on OVCAR-8; 7.8 µM (inactive) in the assay on TK-10; 9.86 µM (inactive) with NCI-H23; 15.6 µM (inactive) in the assay with UACC-257; 0.452 µM (active) with HL-60. Also, the GI50 in the assay with HT-29 is 4.08 µM (inactive); in the assay with M14, 3.01 µM (inactive).

Turning to `N#Cc1ncn(-c2ccccc2)c1N`, the GI50 in the assay with HOP-62, with NCI/ADR-RES, in the assay with MOLT-4, in the assay with IGROV-1, with NCI-H522 and in the assay on SNB-75 was > 100 µM (inactive) each time. Further, the GI50 with MDA-MB-231, in the assay with HCC 2998, with SF-539, with EKVX, with T47D and in the assay on SF-268 was > 100 µM (inactive) each time. In addition, the GI50 with CCRF-CEM, with OVCAR-8, with TK-10, with NCI-H23, in the assay with UACC-257 and in the assay with HL-60 was > 100 µM (inactive) in each case. Besides, the GI50 in the assay on HT-29 and with M14 was > 100 µM (inactive) throughout.

With `Cn1c([N+](=O)[O-])cnc1CN1CCN(CCO)CC1`, the GI50 in the assay with HOP-62, in the assay with NCI/ADR-RES, in the assay on MOLT-4, in the assay with IGROV-1, in the assay with NCI-H522 and in the assay on SNB-75 was > 100 µM (inactive) throughout. Moreover, the GI50 with MDA-MB-231, in the assay on HCC 2998, in the assay with SF-539, in the assay on EKVX, with T47D and with SF-268 was > 100 µM (inactive) in each case. For the same compound, the GI50 in the assay with CCRF-CEM, with OVCAR-8, with TK-10, with NCI-H23, with UACC-257 and in the assay with HL-60 was > 100 µM (inactive) throughout. The GI50 in the assay on HT-29 and in the assay with M14 was > 100 µM (inactive) in each case.

Consider `COC(=O)c1ccc2c(c1)CC1(C2)Cc2cc3c(cc2C1)CCC3`, for which the GI50 with HOP-62, in the assay on NCI/ADR-RES, with MOLT-4, in the assay with IGROV-1, in the assay on NCI-H522 and in the assay with SNB-75 was > 100 µM (inactive) throughout. For the same compound, the GI50 in the assay with MDA-MB-231, in the assay on HCC 2998, with SF-539, in the assay with EKVX, in the assay on T47D and in the assay on SF-268 was > 100 µM (inactive) each time. The GI50 with CCRF-CEM, with OVCAR-8, in the assay with TK-10, in the assay with NCI-H23, in the assay with UACC-257 and in the assay with HL-60 was > 100 µM (inactive) in each case. Also, the GI50 in the assay with HT-29 and in the assay on M14 was > 100 µM (inactive) throughout.

Consider `CC1CC2OC(=O)C(C)C2CC2(C)C(OC3OC(CO)C(O)C(O)C3O)OCCC12` (stereo not given), for which the GI50 with HOP-62, in the assay on NCI/ADR-RES, in the assay with MOLT-4, in the assay with IGROV-1, in the assay on NCI-H522 and in the assay on SNB-75 was > 100 µM (inactive) each time. In addition, the GI50 in the assay on MDA-MB-231, with HCC 2998, in the assay with SF-539, in the assay with EKVX, in the assay on T47D and with SF-268 was > 100 µM (inactive) in each case. In addition, the GI50 with CCRF-CEM, with OVCAR-8, in the assay with TK-10, in the assay with NCI-H23, in the assay with UACC-257 and in the assay on HL-60 was > 100 µM (inactive) in each case. Besides, the GI50 in the assay on HT-29 and in the assay on M14 was > 100 µM (inactive) each time.

Turning to `O=C(NC(=O)c1ccccc1)OC(c1ccccc1)C1CO1` (stereo not given), the GI50 with HOP-62, in the assay with NCI/ADR-RES, in the assay with MOLT-4, in the assay on IGROV-1, in the assay with NCI-H522 and with SNB-75 was > 100 µM (inactive) throughout. For the same compound, the GI50 with MDA-MB-231, with HCC 2998, in the assay on SF-539, with EKVX, in the assay with T47D and in the assay on SF-268 was > 100 µM (inactive) in each case. The GI50 in the assay on CCRF-CEM, in the assay with OVCAR-8, with TK-10, in the assay on NCI-H23, in the assay with UACC-257 and in the assay on HL-60 was > 100 µM (inactive) throughout. The GI50 with HT-29 and in the assay with M14 was > 100 µM (inactive) throughout.
